# According to patent US9017735B2, “Modulation of KCNQ potassium channel activity for treatment of psychiatric disorders and the symptoms thereof” (Marquette University, priority 2009, dated 2015):
# Entries after “also recorded” stand apart in the source; their conditions may differ.
# How the values were obtained:
# KCNQ channel = details: comparative statement among the DuPont channel blockers; cited from earlier work
# [1] = test system: KCNQ (Kv7) potassium channels; test: Prepulse inhibition (PPI) of the startle response, acute PCP model of schizophrenia; type: in vivo, rats; details: for effect on deficits in prepulse inhibition produced by phencyclidine (summary statement): phencyclidine administration in laboratory rodents, no dose stated
# Description: The startle response is produced by delivery of a sudden and intense sensory stimulus pulse (120 db sound) and can be inhibited by exposure to a weaker prepulse (62, 66, or 75 db) which is slightly above the background noise level (60 db). […] PPI has been used as a measure of sensory information processing in rodents and humans. […] A cocktail mixture of XE991 and PCP dissolved in saline was used in these studies. N=38 rats per treatment. *p<0.05 vs. Sal/Sal; +p<0.05 vs. Sal/PCP.
# (§1) Drugs. All drugs were purchased from commercial sources and dissolved in saline. […] All drug doses were nmol per side and were injected bilaterally into the specified brain region.
# [2] = test system: KCNQ (Kv7) potassium channels; test: Social interaction behavior, acute PCP model of schizophrenia; type: in vivo, rats; details: phencyclidine administration in laboratory rodents; no dose stated
# Description: (§2) Social interaction deficit is considered to be a negative symptom of schizophrenia and can be induced in rodents by acute PCP or Ketamine administration and can be reversed by antipsychotics. […] A cocktail mixture of XE991 and PCP dissolved in saline was used in these studies. *p<0.05 vs. Sal/Sal; +p<0.05 vs. Sal/PCP; N=25-42 rats per treatment.
# as §2, with “DMP543” for “XE991”, “40% DMSO” for “saline”, “N=10-28” for “N=25-42”, “treatment. […]” for “treatment.”
# [3] = comparative statement among the DuPont channel blockers; cited from earlier work
# [4] = test system: KCNQ potassium channels in prefrontal cortex; test: Forced delayed alternation task in a T-maze (working memory), acute PCP model, brain microinfusion; type: in vivo, rats; details: for effect on deficits in forced delayed alternation task performance in a T-maze produced by phencyclidine (summary statement): phencyclidine administration in laboratory rodents, no dose stated
# Description: This experimental paradigm involves the working memory, a prefrontal cortex dependent task, and is used to examine attention and memory function. This study was conducted to determine the role of KCNQ channels in PFC in regulation of memory.
# Microinjection and Behavioral Experiments. Stainless Steel cannulae were implanted bilaterally 1 mm above nucleus accumbens or implanted in prefrontal cortex. Rats were permitted a minimum of 7 days recovery from surgery. Drugs were injected using an injection needle that extended 1 mm beyond the tip of the guide cannulae. […] In experiments where two drugs were delivered into accumbens, the microinjections were separated by 15 minutes. Behavioral activity then was monitored as discussed in the Results.
# as §1
# [5] = test system: KCNQ (Kv7) potassium channels; test: Social interaction behavior, acute PCP model of schizophrenia; type: in vivo, rats; details: for effect of channel blocker alone on level of social interaction: 15 minutes before social interaction arena; for reversal of PCP-induced social interaction deficit: p<0.05 vs. Sal/PCP
smiles,measurement,setting,value
"O=C1c2ccccc2C(Cc2ccnc(F)c2)(Cc2ccnc(F)c2)c2ccccc21 [DMP543, 10,10-bis(2-fluoro-4-pyridinylmethyl)-9(10H)-anthracenone]",potency at KCNQ channel,KCNQ channel,higher potency
same,effect on deficits in prepulse inhibition produced by phencyclidine (summary statement),[1],attenuate or fully reverse
same,effect on deficits in social interaction produced by phencyclidine (summary statement),[2],attenuate or fully reverse
same,serum half-life,[3],higher serum half-life
same,effect on deficits in forced delayed alternation task performance in a T-maze produced by phencyclidine (summary statement),[4],attenuate or fully reverse
same,effect of channel blocker alone on level of social interaction,[5]; DMP543 0.15 mg/kg s.c. alone,did not significantly modulate
same,reversal of PCP-induced social interaction deficit,[5]; DMP543 0.15 mg/kg s.c. co-administered with PCP 1.5 mg/kg s.c. (cocktail in 40% DMSO),significantly reversed the deficit
same,reversal of PCP-induced social interaction deficit,"[5]; DMP543 0.15 mg/kg s.c. co-administered with PCP 1.5 mg/kg s.c. (cocktail in 40% DMSO), listed as DM543",reversed
"O=C1N(c2ccccc2)c2ccccc2C1(Cc1ccncc1)Cc1ccncc1 [Linopirdine, 3,3-bis(4-pyridinylmethyl)-1-phenylindolin-2-one]",effect on deficits in prepulse inhibition produced by phencyclidine (summary statement),[1],attenuate or fully reverse
same,effect on deficits in social interaction produced by phencyclidine (summary statement),[2],attenuate or fully reverse
"c1ccc(C2(N3CCCCC3)CCCCC2)cc1 [PCP, phencyclidine]",effect of PCP alone on prepulse inhibition,"[1]; PCP 1.5 mg/kg s.c., all three prepulses, p<0.05 vs. Sal/Sal",reduced the prepulse inhibition at all three prepulses; also recorded: disrupts the prepulse inhibition
same,effect of PCP alone on working memory,"[4]; PCP 3.0 mg/kg s.c. one hour before behavioral testing, trained rats, p<0.05 vs. Sal/Sal",robust and reproducible disruption of working memory
same,effect of PCP alone on social interaction time,"[5]; PCP 1.5 mg/kg s.c., 15 minutes before testing, p<0.05 vs. Sal/Sal",significant reduction in social interaction time
"O=C1c2ccccc2C(Cc2ccncc2)(Cc2ccncc2)c2ccccc21 [XE991, 10,10-bis(4-pyridinylmethyl)-9(101-1)-anthracenone]",effect of channel blocker alone on prepulse inhibition,"[1]; XE991 0.5 mg/kg s.c. alone, 10 minutes before startle chamber, prepulses 62, 66, 75 db",did not show any disruption of the prepulse inhibition
same,reversal of PCP-induced deficits in PPI,"[1]; XE991 0.5 mg/kg s.c. with PCP 1.5 mg/kg s.c. (cocktail in saline), 66 db prepulse, p<0.05 vs. Sal/PCP",reversed the PCP-induced deficits in PPI
same,effect on deficits in prepulse inhibition produced by phencyclidine (summary statement),[1],attenuate or fully reverse
same,effect on deficits in social interaction produced by phencyclidine (summary statement),[2],attenuate or fully reverse
same,effect of channel blocker alone on memory and performance in delayed alternation task,"[4]; XE991 60 nmol/1 ul/1 min, acute bilateral infusion into prefrontal cortex, alone",did not disrupt the memory and performance
same,reversal of PCP-induced working memory deficits,"[4]; XE991 60 nmol/1 μl/1 min microinfusion into PFC 5 minutes before PCP 3.0 mg/kg s.c., p<0.05 vs. Sal/PCP",reversed the PCP-induced memory deficits
same,effect on PCP-mediated working memory disruption,[4]; XE991 microinjected in the nucleus accumbens (data not shown),no effect
same,effect on deficits in forced delayed alternation task performance in a T-maze produced by phencyclidine (summary statement),[4],attenuate or fully reverse
same,effect of channel blocker alone on level of social interaction,[5]; XE991 0.5 mg/kg s.c. alone,did not significantly modulate
same,reversal of PCP-induced social interaction deficit,[5]; XE991 0.5 mg/kg s.c. co-administered with PCP 1.5 mg/kg s.c. (cocktail in saline),reversed the deficit
